From patent US9974767B2, “Statins in the treatment of muscular dystrophies and myopathies” (University of Washington, priority 2014, dated 2018)
Entries after “also recorded” stand apart in the source; their conditions may differ.

How the values were obtained:
Type in all cases: in vivo, mouse
WT mice = assay: Plasma CK activity in wild type mice; conditions: 8 months treatment, vs untreated WT
Description: The activity levels of the mice were measured by voluntary running wheel activity over 2 days. […] Therefore, since CK was measured after the running wheel activity, the dramatic reduction in CK levels in Simvastatin-treated mdx mice is not related to exercise levels. […] Therefore, statins cause a robust reduction in CK release from dystrophic muscle both in long-term treated mice starting from a young age (3 weeks to 8 months), and in old mice (12 months) over a 2 month period.
DMD is a chronic, progressively degenerative disease and consequently potential treatments need to be effective over many years. […] The calculated dose given to the mice was between 5-10 mg/kg/day. This would equate to 20-40 mg/day for a 10 yea old DMD boy weighing 30 kg, based on mouse to human equivalence calculations, which is within the recommended dose range of statins for children.
Male dystrophin-deficient (mdx) and wild type (WT) mice on the C57BL/10ScSn background were used for all experiments, which were approved by the Institutional Animal Care and Use Committee (IACUC) at the University of Washington.
Simvastatin powder (TCI America) was formulated as a treatment in two ways; in the drinking water and in the food. […]
Plasma CK was evaluated as a measure of whole body muscle damage. […]

LC3A/LC3B = assay: LC3A and LC3B expression in diaphragm (autophagy), Western blot; conditions: old mdx Sim vs mdx Con
Excerpt: Autophagy is an important cellular pathway for degrading damaged proteins, organelles and protein aggregates, which are then recycled by the cell for energy use. Impaired autophagy can trigger cell death and in skeletal muscle, proper regulation of autophagy is essential for normal cellular and physiological function. Both mdx and DMD muscles show evidence of reduced autophagy and treatment of mdx mice with a low protein diet triggered autophagy, which reduced inflammation and fibrosis and enhanced muscle function. […] A key protein marker of autophagic flux is the microtubule-associated protein 1A/1B light chain 3, which has a cytosolic form (LC3A) and a lapidated form (LC3B). An increased level of LC3B relative to LC3A is indicative of enhanced autophagic flux.
(§1) Tibialis anterior (TA) muscle function was measured in situ. Mice were anaesthetized with an intraperitoneal injection of Avertin (625 mg/kg) and placed on a heated metal platform (37° C.). The distal TA tendon was dissected free and sutured to the lever arm of the force and length control system (305C-LR, Aurora Scientific). […] Fatigue recovery was measured every 2 min up to 10 min post-fatigue. […] Membranes were incubated with enhanced chemiluminescence (ECL) reagent (Amersham) and bands were detected by the FluorChem M, imaging system (Protein Simple).

mdx mice [1] = assay: Voluntary running wheel activity over 2 days; conditions: P=0.13
mdx mice [2] = assay: TA muscle function in situ (specific force, fatigue, recovery)
Description: Hindlimb (TA) muscle physiology was measured in situ, which has the advantages of direct nerve stimulation and intact blood circulation. […] We also evaluated muscle fatigue resistance and recovery from fatigue, because this is a major cause of weakness in dystrophic muscle. TA muscle fatigue was assessed after 1 min and 2 min of repetitive tetanic contractions (2 sec apart). […] Recovery from muscle fatigue was measured every 2 min up to 10 min post fatigue.
Muscle degeneration and loss of function in DMD begins very early in the disease and progressively worsens over time. Consequently, useful therapeutic agents must be effective when administered at various stages of the disease. […] Hindlimb (TA) muscle physiology was measured in situ. This method has the advantages of direct nerve stimulation and intact blood circulation, which provides an essentially in vivo approach for measuring muscle function. Remarkably, specific muscle force increased by 40% (P<0.001) for mdx Sim compared to mdx Con mice, a dramatic increase for a pharmacological agent.
In addition to the loss of specific force, increased muscle fatigue and slowed force recovery are also significant causes of muscle weakness in DMD. Muscle fatigue in TA was measured during repetitive tetanic contractions (every 2 seconds) for a total of 2 minutes. For mdx Con mice, force declined rapidly during the early part of the fatigue and then much less steeply for the remainder of the contractions (FIG. 12A). In contrast, the force decline for mdx Sim was very similar to the WT groups, with a slow force drop over the first minute and then a greater decline over the last minute (see FIG. 12B). […] Recovery from fatigue was measured up to 10 min post fatigue (FIG. 12C). […] The cellular mechanisms of muscle fatigue are complex, however ROS are known to be an important cause of force loss during muscle fatigue.
as §1, with “Scientific). Muscle contraction was provided by stimulation of the Sciatic nerve using bipolar electrodes, which was kept moist during the experiment with PBS. The knee bone was firmly anchored to the platform via a steel pin. A length-force curve was generated by stimulating the muscle at 120 Hz (200 ms duration), every 90 sec, from short to long muscle lengths.” for “Scientific).”

H2O2 (ROS) = assay: H2O2 levels in diaphragm muscle homogenates, amplex red assay; conditions: old mdx mice
Excerpt: FIG. 14A. Western blot (top) showing the levels of the autophagy proteins LC3A (upper band) and LC3B (lower band) for mdx Con and mdx Sim. GAPDH is shown as a loading control. Pooled data (bottom) for LC3A and LC3B. **P<0.01 compared to mdx Con. FIG. 14B. Hydrogen peroxide (H2O2) levels in diaphragm muscle homogenates, as quantified with a fluorescent amplex red assay. *P<0.05 compared to mdx Con. FIG. 14C. Atrogin-1 mRNA levels in quadriceps muscles were quantified by qPCR and normalized to the internal control (HPRT). *P<0.05 compared to WT Con. **P<0.01 compared to WT Con.
To further explore this idea, we also measured the levels of the ROS (H2O2) in diaphragm muscle homogenates. […] This highlights important differences between dystrophic muscle, where statins reduce oxidative stress derived from NOX2, and normal muscle susceptible to statin myopathy, where mitochondrial ROS increases oxidative stress.

SMILES: CCC(C)(C)C(=O)O[C@H]1C[C@@H](C)C=C2C=C[C@H](C)[C@H](CC[C@@H]3C[C@@H](O)CC(=O)O3)[C@H]21 [Simvastatin, simvastatin]
- CK levels of WT mice (WT mice): no difference; also recorded: no effect
- CK levels of WT mice (WT mice; listed as simvastatin): no effect
- increase of LC3B (LC3A/LC3B): 40%
- voluntary running wheel activity, more than control mdx mice (mdx mice [1]): 20%
- force recovery at 2 min post fatigue (mdx mice [2]; mdx Sim): 80.9 % of the initial, pre-fatigue force
- force recovery at 10 min post fatigue (mdx mice [2]; mdx Sim): 86.9%
- increase of hindlimb (TA) specific muscle force (mdx mice [2]; mdx Sim vs mdx Con, treatment from 3 to 6 months of age): 40%
- TA force after 1 minute of fatigue (mdx mice [2]; mdx Sim, tetanic contractions every 2 sec, mdx Con 53%): 68 % of initial force
- less H2O2 compared to mdx Con (H2O2 (ROS)): 30%
